The subject of this assay is Mus musculus. The assay is described as follows: Antiinflammatory activity in BALB/c mouse assessed as inhibition of heat killed Propionibacterium acnes-induced neutrophil influx at 300 pg, ip administered 12 hrs after Propionibacterium acnes stimulation and measured after 24 hrs by flow cytometry analysis. In kind it is functional. In general terms: In flow cytometry, cells or beads pass a laser one at a time.

Activity calls are given as the source filed them. The calls are words filed in the database; no cut-off is given here.

Regarding `CC[C@@H](O)/C=C/C=C\C[C@@H](O)/C=C/C=C/C=C\[C@@H](O)CCCC(=O)O` [RESOLVIN E1], the “inhibition (INH)” value is 31%.
For `CC[C@@H](O)/C=C/C=C\C[C@@H](O)/C=C/C=C/C=C\[C@@H](O)[C@@H]1C[C@H]1C(=O)O`, the inhibition result was “Active”.
Take `CC[C@@H](O)/C=C/C=C\C[C@@H](O)/C=C/C=C/C=C\[C@@H](O)[C@H]1C[C@@H]1C(=O)O`: the “inhibition (INH)” value is 50%.
On to `CC[C@@H](O)/C=C/C=C\C[C@@H](O)/C=C/C=C/C=C\[C@@H](O)[C@@H]1C[C@@H]1C(=O)O`, for which the inhibition result is “Active”.
For `CC[C@@H](O)/C=C/C=C\C[C@@H](O)/C=C/C=C/C=C\[C@@H](O)[C@H]1C[C@H]1C(=O)O`, the inhibition result was “Active”.

The record behind these values is ChEMBL document CHEMBL4715926, “Synthesis of Resolvin E1 and Its Conformationally Restricted Cyclopropane Congeners with Potent Anti-Inflammatory Effect” (2021).
